In one series the target is T1, EGF-R (HER-1) (Homo sapiens, UniProt P00533).
T1 construct: using the recombinant intracellular domain of the EGF-receptor [EGF-R ICD
The experiment in a line: Inhibition of EGF-R tyrosine kinase activity (recombinant intracellular domain, EGF-R ICD). In kind it is biochemical. The procedure:
J. Biochem. 207, 265-275 (1992)].
(§1) Inhibition of the Tyrosine Kinase Activity of EGF-R (HER-1), ErbB-2 (HER-2) and VEGF Receptor (KDR)
(§2) The inhibition tests are carried out as described above.

Another series has as its target ErbB-2 (HER-2) (Homo sapiens, UniProt P04626). Put plainly: Inhibition of ErbB-2 tyrosine kinase activity. In kind it is biochemical. Here is the method:
The inhibitory activity (IC50) is approximately in the range of 0.001 to 0.5 μM. The inhibition of ErbB-2 tyrosine kinase (HER-2) can be determined, for example, analogously to the method used for EGF-R protein tyrosine kinase [see C. House et al., Europ. J. Biochem. 140, 363-367 (1984)]. The ErbB-2 kinase can be isolated, and its activity determined, by means of protocols known per se, for example in accordance with T. Akiyama et al., Science 232, 1644 (1986).
as §1, §2

A further series deals with VEGF Receptor (KDR) (Homo sapiens, UniProt P35968). Put plainly: Inhibition of KDR tyrosine kinase activity. In kind it is biochemical. Here is the method: The compounds of the present invention are therefore very effective dual inhibitors of EGF- and VEGF-receptor family members. For inhibition of KDR and Flt-1 and inhibition of growth factor-induced proliferation of HUVECS see J. Wood et al., Cancer Res. 60, 2178-2189 (2000). The compounds of formula I inhibit e.g. the KDR tyrosine kinase activity with an IC50 of from about 1 nM to about 1 μM, especially from about 5 nM to about 0.5 μM.
VEGF Receptor (KDR), sequence (P35968 20-1356): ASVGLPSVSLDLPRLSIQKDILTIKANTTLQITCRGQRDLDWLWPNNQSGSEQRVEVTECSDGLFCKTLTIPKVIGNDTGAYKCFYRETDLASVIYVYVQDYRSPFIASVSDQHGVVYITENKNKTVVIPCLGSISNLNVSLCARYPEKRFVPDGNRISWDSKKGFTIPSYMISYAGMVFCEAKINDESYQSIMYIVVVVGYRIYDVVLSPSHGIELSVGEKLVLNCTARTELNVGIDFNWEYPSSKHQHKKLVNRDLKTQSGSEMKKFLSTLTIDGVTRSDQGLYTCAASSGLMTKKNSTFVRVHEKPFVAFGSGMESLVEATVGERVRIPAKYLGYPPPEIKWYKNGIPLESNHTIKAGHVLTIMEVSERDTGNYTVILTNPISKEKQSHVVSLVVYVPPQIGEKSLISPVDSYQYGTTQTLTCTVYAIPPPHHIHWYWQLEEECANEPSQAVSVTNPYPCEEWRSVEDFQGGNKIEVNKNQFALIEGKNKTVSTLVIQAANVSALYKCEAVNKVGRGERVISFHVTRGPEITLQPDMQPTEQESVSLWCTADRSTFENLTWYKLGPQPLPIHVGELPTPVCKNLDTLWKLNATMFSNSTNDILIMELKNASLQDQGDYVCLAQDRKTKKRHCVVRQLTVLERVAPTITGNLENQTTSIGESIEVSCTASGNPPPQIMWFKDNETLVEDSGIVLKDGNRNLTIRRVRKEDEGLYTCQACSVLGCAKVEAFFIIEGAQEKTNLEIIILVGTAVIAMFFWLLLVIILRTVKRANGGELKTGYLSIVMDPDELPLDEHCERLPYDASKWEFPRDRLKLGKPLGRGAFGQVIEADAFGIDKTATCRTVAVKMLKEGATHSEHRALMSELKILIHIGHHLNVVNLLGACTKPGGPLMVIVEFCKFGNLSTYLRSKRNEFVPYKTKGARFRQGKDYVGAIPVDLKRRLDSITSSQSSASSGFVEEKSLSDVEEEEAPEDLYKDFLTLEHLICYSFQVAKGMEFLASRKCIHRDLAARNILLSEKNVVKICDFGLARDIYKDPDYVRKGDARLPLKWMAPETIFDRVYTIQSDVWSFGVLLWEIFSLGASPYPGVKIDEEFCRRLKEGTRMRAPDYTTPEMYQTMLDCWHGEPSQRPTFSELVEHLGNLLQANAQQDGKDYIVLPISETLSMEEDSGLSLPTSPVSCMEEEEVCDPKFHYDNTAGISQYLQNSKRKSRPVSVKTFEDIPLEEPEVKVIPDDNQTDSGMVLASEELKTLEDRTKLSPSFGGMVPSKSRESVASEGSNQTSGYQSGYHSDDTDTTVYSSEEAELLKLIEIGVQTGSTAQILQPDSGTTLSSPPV
as §1, §2

For twelve compounds, IC50 and melting point results are on record in patent publication US7323469B2, “7H-pyrrolo[2,3-d]pyrimidine derivatives” (Novartis AG, priority 2001, dated 2008).

ErbB-2 (HER-2), sequence (P04626 23-1255): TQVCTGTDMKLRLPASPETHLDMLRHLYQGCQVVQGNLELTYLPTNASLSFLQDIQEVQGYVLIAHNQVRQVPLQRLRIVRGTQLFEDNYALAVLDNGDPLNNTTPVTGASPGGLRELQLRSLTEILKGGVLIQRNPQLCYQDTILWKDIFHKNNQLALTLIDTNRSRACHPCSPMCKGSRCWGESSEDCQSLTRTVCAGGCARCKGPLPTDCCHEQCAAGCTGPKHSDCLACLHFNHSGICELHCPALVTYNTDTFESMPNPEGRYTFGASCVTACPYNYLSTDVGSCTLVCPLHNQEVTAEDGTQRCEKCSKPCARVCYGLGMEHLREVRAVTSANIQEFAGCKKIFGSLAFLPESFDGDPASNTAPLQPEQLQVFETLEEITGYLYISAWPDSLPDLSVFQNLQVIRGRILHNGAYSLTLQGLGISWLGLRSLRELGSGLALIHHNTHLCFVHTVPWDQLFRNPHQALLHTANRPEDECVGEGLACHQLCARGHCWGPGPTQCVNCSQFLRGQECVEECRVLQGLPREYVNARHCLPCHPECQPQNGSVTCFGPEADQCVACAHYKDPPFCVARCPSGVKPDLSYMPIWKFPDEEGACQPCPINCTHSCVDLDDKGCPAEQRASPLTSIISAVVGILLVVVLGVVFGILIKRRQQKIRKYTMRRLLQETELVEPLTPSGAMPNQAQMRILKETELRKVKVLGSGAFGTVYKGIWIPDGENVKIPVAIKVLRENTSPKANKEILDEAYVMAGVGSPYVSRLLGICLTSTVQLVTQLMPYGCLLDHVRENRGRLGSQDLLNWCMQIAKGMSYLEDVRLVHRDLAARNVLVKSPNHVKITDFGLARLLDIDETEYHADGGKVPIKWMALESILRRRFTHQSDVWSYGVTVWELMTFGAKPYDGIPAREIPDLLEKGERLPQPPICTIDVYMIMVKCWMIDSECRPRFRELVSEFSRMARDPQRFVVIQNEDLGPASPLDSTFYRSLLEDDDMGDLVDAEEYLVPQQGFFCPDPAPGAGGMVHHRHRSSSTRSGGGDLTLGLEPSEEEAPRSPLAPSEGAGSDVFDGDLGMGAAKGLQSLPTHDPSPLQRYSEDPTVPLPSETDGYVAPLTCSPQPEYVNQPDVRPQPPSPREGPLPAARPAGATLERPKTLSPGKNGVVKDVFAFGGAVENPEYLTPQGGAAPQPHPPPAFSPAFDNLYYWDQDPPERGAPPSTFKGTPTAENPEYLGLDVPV
T1 sequence (P00533 669-1210 limits assumed): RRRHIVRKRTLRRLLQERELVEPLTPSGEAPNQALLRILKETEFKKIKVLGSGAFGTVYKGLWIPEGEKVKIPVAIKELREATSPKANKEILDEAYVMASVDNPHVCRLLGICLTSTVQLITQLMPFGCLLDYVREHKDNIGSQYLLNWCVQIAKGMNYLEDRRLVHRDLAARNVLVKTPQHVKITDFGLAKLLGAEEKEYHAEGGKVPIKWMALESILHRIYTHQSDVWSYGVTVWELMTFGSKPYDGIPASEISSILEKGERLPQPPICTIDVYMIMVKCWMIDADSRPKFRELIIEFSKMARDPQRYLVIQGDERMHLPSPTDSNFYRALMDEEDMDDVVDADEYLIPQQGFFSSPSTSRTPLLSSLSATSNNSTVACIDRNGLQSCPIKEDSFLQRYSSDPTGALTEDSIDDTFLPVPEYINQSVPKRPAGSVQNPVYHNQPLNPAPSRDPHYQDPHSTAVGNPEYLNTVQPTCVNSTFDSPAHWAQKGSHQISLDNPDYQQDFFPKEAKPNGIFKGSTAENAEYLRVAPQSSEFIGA

As for `CN(C)Cc1ccc(-c2cc3c(Nc4ccc(=O)[nH]c4)ncnc3[nH]2)cc1` [Example 116, 5-[6-(4-Dimethylaminomethyl-phenyl)-7H-pyrrolo[2,3-d]pyrimidin-4-ylamino]-1H-pyridin-2-one], the values for the IC50 at EGF-R (HER-1), against ErbB-2 (HER-2) and against VEGF Receptor (KDR) were 39 nM, 15.5 nM and 15.5 nM, respectively.
Consider `CCN(CC)Cc1ccc(-c2cc3c(N[C@H](C)c4ccccc4)ncnc3[nH]2)cc1` [Example 10, [6-(4-Diethylamino-methyl-phenyl)-7H-pyrrolo[2,3-d]pyrimidin-4-yl]-((R)-1-phenyl-ethyl)-amine], for which the melting point is 246 to 248 °C. The 50% inhibitory concentration (IC50) against ErbB-2 (HER-2) worked out at 9 nM. Also, at VEGF Receptor (KDR), inhibition was half-maximal at 29.3 nM (IC50).
Turning to `C[C@@H](Nc1ncnc2[nH]c(-c3ccc(CN(C)C)cc3)cc12)c1ccccc1` [Example 13, [6-(4-Dimethylamino-methyl-phenyl)-7H-pyrrolo[2,3-d]pyrimidin-4-yl]-((R)-1-phenyl-ethyl)-amine], the 50% inhibitory concentration (IC50) at EGF-R (HER-1) was 6 nM; on ErbB-2 (HER-2) it was 5 nM; against VEGF Receptor (KDR) it was 88 nM.
Consider `CCN1CCN(Cc2ccc(-c3cc4c(N[C@H](C)c5ccccc5)ncnc4[nH]3)cc2)CC1` [Example 11, {6-[4-(4-Ethyl-piperazin-1-ylmethyl)-phenyl]-7H-pyrrolo[2,3-d]pyrimidin-4-yl}-((R)-1-phenyl-ethyl)-amine], for which the IC50 against ErbB-2 (HER-2) was determined as 5 nM; at VEGF Receptor (KDR) it was 49.7 nM.
In turn, `CN1CCN(Cc2ccc(-c3cc4c(NCc5cc(Cl)ccc5Cl)ncnc4[nH]3)cc2)CC1` [Example 102, (2,5-Dichloro-benzyl)-{6-[4-(4-methyl-piperazin-1-ylmethyl)-phenyl]-7H-pyrrolo[2,3-d]pyrimidin-4-yl)-amine] yielded a melting point of 244 to 246 °C.
Regarding `COc1cc(CNc2ncnc3[nH]c(-c4ccc(CN(C)C)cc4)cc23)ccn1` [Example 124, (2-Methoxy-pyridin-4-ylmethyl)-{6-[4-(dimethylamino-methyl)-phenyl]-7H-pyrrolo[2,3-d]pyrimidin-4-yl}-amine], the melting point lay in the range of 210 to 211 °C.
For `CCN1CCN(Cc2ccc(-c3cc4c(NCc5cccc(C)c5)ncnc4[nH]3)cc2)CC1` [Example 107j, {6-[4-(4-Ethyl-piperazin-1-ylmethyl)-phenyl]-7H-pyrrolo[2,3-d]pyrimidin-4-yl}-(3-methyl-benzyl)-amine], the melting point was in the range of 250 to 252 °C.
On the same count and under the same terms, under `CN(C)Cc1cccc(-c2cc3c(Nc4ccc(F)c(Cl)c4)ncnc3[nH]2)c1` [Example 33, (3-Chloro-4-fluoro-phenyl)-[6-(3-dimethylaminomethyl-phenyl)-7H-pyrrolo[2,3-d]pyrimidin-4-yl]-amine] stands 218 to 220 °C.
For the compound `C[C@@H](Nc1ncnc2[nH]c(-c3ccc(CNC(=O)CCN4CCCCC4)cc3)cc12)c1ccccc1` [Example 54, N-{4-[4-((R)-1-Phenyl-ethylamino)-7H-pyrrolo[2,3-d]pyrimidin-6-yl]-benzyl}-3-piperidin-1-yl-propionamide], the melting point was determined as 140 °C.
Consider `CCN1CCN(CC(=O)NCc2ccc(-c3cc4c(N[C@H](C)c5ccccc5)ncnc4[nH]3)cc2)CC1` [Example 45, 2-(4-Ethyl-piperazin-1-yl)-N-{4-[4-((R)-1-phenyl-ethylamino)-7H-pyrrolo[2,3-d]pyrimidin-6-yl]-benzyl}-acetamide], for which the melting point was in the range of 121 to 124 °C.
`C[C@@H](Nc1ncnc2[nH]c(-c3cccc(CN(C)C)c3)cc12)c1ccccc1` [Example 25, [6-(3-Dimethylaminomethyl-phenyl)-7H-pyrrolo[2,3-d]pyrimidin-4-yl]-((R)-1-phenyl-ethyl)-amine] returned a melting point of 108 to 110 °C.
Regarding `CCN(CC)CCNCc1ccc(-c2cc3c(N[C@H](C)c4ccccc4)ncnc3[nH]2)cc1` [Example 16c, N,N-Diethyl-N′-{4-[4-((R)-1-phenyl-ethyl-amino)-7H-pyrrolo[2,3-d]pyrimidin-6-yl]-benzyl}-ethane-1,2-diamine], the melting point was in the range of 145 to 150 °C.

For orientation: IC50 means the point on the concentration scale where inhibition reaches its midpoint. A word on the melting point: it is the temperature, or range, at which the solid turns liquid.
